In the supplement of paper PMC10627819:

Experiments:
Assay in all cases: fitness (endpoint OD595 vs no drug) (fraction); higher = more growth
[1] = tested on: S. aureus Newman
How it was run: (§1)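 At 37 °C, bacteria in TSB, LB Lennox or CY were grown in 384-well plates from a starting OD595 of 0.01. OD595 was measured every 30 min for 14 h, with the first reading used as background. Fitness is the optical density at the switch to stationary phase as a fraction of the robust mean of no-drug control wells, capped at 1.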

[2] = tested on: B. subtilis 168
How it was run: as §1

[3] = tested on: S. pneumoniae D39V
How it was run: as §1
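Further: OD595 on entry to stationary phase over no-drug wells; at most 1.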

O=C(O)c1cn(C2CC2)c2cc(N3CCNCC3)c(F)cc2c1=O [Ciprofloxacin] + N[C@@H]1CONC1=O [Cycloserine D]
fitness
Details | partner 0.125 µg/mL | partner 0.25 µg/mL | partner 0.375 µg/mL | partner 0.5 µg/mL | partner 0.75 µg/mL | partner 1.5 µg/mL
[1], first compound 0.0375 µg/mL | – | – | 0.7 | – | 0.682 | 0.689
[1], first compound 0.15 µg/mL | – | – | 0.0749 | – | 0.0416 | 0.047
[2], first compound 0.0098 µg/mL | 0.891 | 0.85 | – | 0.901 | – | –
[2], first compound 0.0195 µg/mL | 0.684 | 0.653 | – | 0.679 | – | –
[2], first compound 0.039 µg/mL | 0.144 | 0.0682 | – | 0.12 | – | –

COc1cccc2c1C(=O)c1c(O)c3c(c(O)c1C2=O)C[C@@](O)(C(=O)CO)C[C@@H]3O[C@H]1C[C@H](N)[C@H](O)[C@H](C)O1 [Doxorubicin] + CC1=C(C(=O)O)N2C(=O)[C@@H](NC(=O)[C@H](N)c3ccccc3)[C@H]2SC1 [Cephalexin]
fitness
Details | first compound 0.25 µg/mL | first compound 0.5 µg/mL | first compound 0.625 µg/mL | first compound 1 µg/mL | first compound 1.25 µg/mL | first compound 2.5 µg/mL
[1], partner 0.25 µg/mL | – | – | 0.771 | – | 0.824 | 0.744
[1], partner 0.5 µg/mL | – | – | 0.844 | – | 0.834 | 0.758
[1], partner 1 µg/mL | – | – | 0.823 | – | 0.861 | 0.83
[2], partner 0.125 µg/mL | – | – | 0.917 | – | 0.897 | 0.733
[2], partner 0.25 µg/mL | – | – | 0.964 | – | 0.89 | 0.68
[2], partner 0.5 µg/mL | – | – | 0.969 | – | 0.941 | 0.655
[3], partner 2 µg/mL | 0.0496 | 0.0845 | – | 0.105 | – | –
[3], partner 4 µg/mL | 0.0361 | 0.0467 | – | 0.0242 | – | –

fitness, one replicate
Details | first compound 0.25 µg/mL | first compound 0.5 µg/mL | first compound 0.625 µg/mL | first compound 1 µg/mL | first compound 1.25 µg/mL | first compound 2.5 µg/mL
[2], partner 1 µg/mL | – | – | ≥ 1 | – | 0.98 | 0.703
[3], partner 0.125 µg/mL | 0.866 | 0.98 | – | 0.905 | – | –
[3], partner 0.25 µg/mL | 0.862 | 0.876 | – | 0.861 | – | –
[3], partner 0.5 µg/mL | 0.878 | 0.872 | – | 0.898 | – | –

O=C(O)c1cn(C2CC2)c2cc(N3CCNCC3)c(F)cc2c1=O [Ciprofloxacin] + CO/N=C(\C(=O)N[C@@H]1C(=O)N2C(C(=O)O)=C(COC(C)=O)CS[C@H]12)c1csc(N)n1 [Cefotaxime]
fitness, one replicate
Details | partner 0.00775 µg/mL | partner 0.0155 µg/mL | partner 0.031 µg/mL | partner 0.039 µg/mL | partner 0.0625 µg/mL | partner 0.125 µg/mL | partner 0.25 µg/mL | partner 0.312 µg/mL
[1], first compound 0.0375 µg/mL | – | – | – | 0.633 | – | – | – | 0.217
[1], first compound 0.075 µg/mL | – | – | – | 0.691 | – | – | – | 0.0389
[1], first compound 0.15 µg/mL | – | – | – | 0.0625 | – | – | – | 0.0381
[2], first compound 0.0098 µg/mL | 0.764 | 0.594 | 0.347 | – | 0.475 | 0.333 | 0.263 | –
[2], first compound 0.0195 µg/mL | 0.546 | 0.205 | 0.063 | – | 0.231 | 0.129 | 0.0436 | –
[2], first compound 0.039 µg/mL | 0.0504 | 0.0283 | 0.045 | – | 0.0338 | 0.0283 | 0.0507 | –

Details | fitness
[1], first compound 0.0375 µg/mL, partner 0.078 µg/mL | 0.578
[1], first compound 0.0375 µg/mL, partner 0.156 µg/mL | 0.489
[1], first compound 0.0375 µg/mL, partner 0.625 µg/mL | 0.0622
[1], first compound 0.0375 µg/mL, partner 1.25 µg/mL | 0.0267
[1], first compound 0.0375 µg/mL, partner 2.5 µg/mL | 0.0312
[1], first compound 0.075 µg/mL, partner 0.078 µg/mL | 0.518
[1], first compound 0.075 µg/mL, partner 0.625 µg/mL | 0.0809
[1], first compound 0.075 µg/mL, partner 1.25 µg/mL | 0.0731
[1], first compound 0.075 µg/mL, partner 2.5 µg/mL | 0.0893
[1], first compound 0.15 µg/mL, partner 0.078 µg/mL | 0.0493
[1], first compound 0.15 µg/mL, partner 0.156 µg/mL | 0.0219
[1], first compound 0.15 µg/mL, partner 0.625 µg/mL | 0.0244
[1], first compound 0.15 µg/mL, partner 1.25 µg/mL | 0.0309
[1], first compound 0.15 µg/mL, partner 2.5 µg/mL | 0.0543
[2], first compound 0.0098 µg/mL, partner 0.5 µg/mL | 0.141
[2], first compound 0.0098 µg/mL, partner 1 µg/mL | 0.0495
[2], first compound 0.0098 µg/mL, partner 2 µg/mL | 0.0625
[2], first compound 0.0195 µg/mL, partner 0.5 µg/mL | 0.0302
[2], first compound 0.0195 µg/mL, partner 1 µg/mL | 0.0272
[2], first compound 0.0195 µg/mL, partner 2 µg/mL | 0.0392
[2], first compound 0.039 µg/mL, partner 0.5 µg/mL | 0.0615
[2], first compound 0.039 µg/mL, partner 1 µg/mL | 0.0416
[2], first compound 0.039 µg/mL, partner 2 µg/mL | 0.0569
[3], first compound 0.125 µg/mL, partner 0.0018 µg/mL | 0.992
[3], first compound 0.125 µg/mL, partner 0.0035 µg/mL | 0.95
[3], first compound 0.25 µg/mL, partner 0.0018 µg/mL | 0.919
[3], first compound 0.25 µg/mL, partner 0.0035 µg/mL | 0.962
[3], first compound 0.25 µg/mL, partner 0.007 µg/mL | 0.873
[3], first compound 0.5 µg/mL, partner 0.0018 µg/mL | 0.809
[3], first compound 0.5 µg/mL, partner 0.0035 µg/mL | 0.803
